Calls of active or inactive are those of the source.
Tests used:
[1] = molecular target: T1, Bcl-2-like protein 10 (Homo sapiens, UniProt Q9HD36); experiment: displacers of TR3 peptide from Bcl-B, primary screen, selectivity assay for Bfl-1 inhibitor project, biochemical, fluorescence polarization, FITC-TR3 peptide (AID 748);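 also: fluorescence polarization from a fluorescein-labelled TR3 peptide binding purified Bcl-B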
T1 sequence (Q9HD36 whole entry): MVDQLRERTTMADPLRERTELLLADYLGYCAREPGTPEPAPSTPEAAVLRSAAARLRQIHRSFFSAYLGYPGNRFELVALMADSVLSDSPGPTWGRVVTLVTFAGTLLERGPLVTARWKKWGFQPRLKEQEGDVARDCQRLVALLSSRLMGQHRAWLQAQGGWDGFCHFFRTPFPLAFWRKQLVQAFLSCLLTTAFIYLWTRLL

[2] = molecular target: DNA dC->dU-editing enzyme APOBEC-3G (Homo sapiens, UniProt Q9HC16); format: functional;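 also: Dose-response counterscreen measuring inhibition of APOBEC3G DNA deaminase activity, run while confirming APOBEC3A inhibitors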
[3] = molecular target: DNA dC->dU-editing enzyme APOBEC-3A (Homo sapiens, UniProt P31941); experiment: Dose Response confirmation of small molecule APOBEC3A DNA Deaminase Inhibitors via a fluorescence-based single-stranded DNA deaminase assay. [Related pubchem assays (depositor defined):AID493011, AID493024]; format: functional
[4] = molecular target: Nonstructural protein 1 (Influenza A virus, UniProt Q194T2); format: functional, Influenza A virus (A/California/07/2009(H1N1))
[5] = inhibitors of firefly luciferase expression or activity, dose response, H4 neuroglioma cells, luminescence (AID 1990); format: functional, cell-based
[6] = luciferase reporter signal reduction – luminescence, H4-C neuroglioblastoma cells, dose response (AID 2458); format: functional, cell-based;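 also: H4 neuroglioblastoma cells stably carrying a luciferase reporter gene fusion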
[7] = molecular target: Large T antigen (Simian virus 40, UniProt P03070); format: functional, Betapolyomavirus macacae;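 also: Confirmatory-stage PubChem screen for compounds that inhibit SV40 T antigen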
[8] = cells; format: functional, cell-based
[9] = inhibitors of SNCA 5'UTR-driven translation, confirmation, luminescence, H4 neuroglioblastoma cells, dose confirmation (AID 2454); format: functional, cell-based;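 also: H4 neuroglioblastoma cells carrying an alpha-synuclein 5'UTR luciferase reporter; potency for inhibition of the luciferase signal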
[10] = inhibitors of SNCA 5'UTR-driven reporter translation, confirmation, H4 neuroglioma cells, luminescence (AID 1988); format: functional, cell-based
[11] = cytotoxicity in HEK-293T cells, dose response, cytotoxicity control for TCR NF-kB inhibitor project, luminescence, T-cell screen hits (AID 489026); format: functional, cell-based;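 also: cells exposed to compound about 14 hours before the viability readout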
[12] = Luminescence Cell-Based Dose Response HTS to Identify Inhibitors of 5'UTR Stem-Loop Driven Prion Protein mRNA Translation in H4 Neuroglioblastoma Cells. [Related pubchem assays: 1827 (Project Summary), 1813 (Primary HTS)]; format: functional
[13] = molecular target: Beta-galactosidase (Escherichia coli, UniProt Q8VNN2); experiment: beta-galactosidase enzyme inhibitors and activators, dose response, artefact control for CCR6 antagonist project, biochemical, E. coli enzyme, set 3 (AID 504712); format: functional
[14] = molecular target: T2, Aminopeptidase N (Plasmodium falciparum FcB1/Columbia, UniProt O96935); experiment: P. falciparum M1AAP inhibitors, biochemical, fluorogenic H-Leu-NHMec substrate, 1536-well (AID 1445); design: species or system Plasmodium falciparum 3D7, 3D7
T2 sequence (O96935 whole entry): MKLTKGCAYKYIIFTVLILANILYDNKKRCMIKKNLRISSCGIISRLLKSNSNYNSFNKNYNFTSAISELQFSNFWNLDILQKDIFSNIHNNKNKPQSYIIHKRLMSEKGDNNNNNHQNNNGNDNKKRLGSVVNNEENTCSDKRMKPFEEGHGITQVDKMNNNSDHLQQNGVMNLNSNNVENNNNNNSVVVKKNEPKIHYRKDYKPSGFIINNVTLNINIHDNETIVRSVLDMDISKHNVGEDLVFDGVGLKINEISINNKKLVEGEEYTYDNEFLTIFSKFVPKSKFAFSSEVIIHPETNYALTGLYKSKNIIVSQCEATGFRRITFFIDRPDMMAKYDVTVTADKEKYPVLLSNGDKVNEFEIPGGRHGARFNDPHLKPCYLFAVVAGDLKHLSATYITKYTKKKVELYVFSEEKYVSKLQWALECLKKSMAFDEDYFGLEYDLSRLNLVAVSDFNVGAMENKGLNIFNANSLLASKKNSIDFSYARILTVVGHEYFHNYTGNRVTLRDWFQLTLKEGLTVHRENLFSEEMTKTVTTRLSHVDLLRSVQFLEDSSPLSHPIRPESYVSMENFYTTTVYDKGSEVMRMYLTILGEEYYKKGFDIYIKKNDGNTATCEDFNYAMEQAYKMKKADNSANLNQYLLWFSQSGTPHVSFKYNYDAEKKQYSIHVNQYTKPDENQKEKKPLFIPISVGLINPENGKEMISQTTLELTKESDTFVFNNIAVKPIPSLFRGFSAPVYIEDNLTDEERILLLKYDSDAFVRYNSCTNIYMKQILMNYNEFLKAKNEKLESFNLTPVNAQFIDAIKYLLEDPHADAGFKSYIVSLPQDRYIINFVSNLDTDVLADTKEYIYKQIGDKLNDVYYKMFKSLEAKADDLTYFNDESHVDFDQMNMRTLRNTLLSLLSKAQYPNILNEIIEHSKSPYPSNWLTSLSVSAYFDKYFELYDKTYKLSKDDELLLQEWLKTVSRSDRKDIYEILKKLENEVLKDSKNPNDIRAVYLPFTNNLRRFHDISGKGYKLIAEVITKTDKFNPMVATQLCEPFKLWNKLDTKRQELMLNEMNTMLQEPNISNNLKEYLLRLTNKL

[15] = molecular target: T3, Protein skinhead-1 (Caenorhabditis elegans, UniProt P34707); format: functional
T3 sequence (P34707 whole entry): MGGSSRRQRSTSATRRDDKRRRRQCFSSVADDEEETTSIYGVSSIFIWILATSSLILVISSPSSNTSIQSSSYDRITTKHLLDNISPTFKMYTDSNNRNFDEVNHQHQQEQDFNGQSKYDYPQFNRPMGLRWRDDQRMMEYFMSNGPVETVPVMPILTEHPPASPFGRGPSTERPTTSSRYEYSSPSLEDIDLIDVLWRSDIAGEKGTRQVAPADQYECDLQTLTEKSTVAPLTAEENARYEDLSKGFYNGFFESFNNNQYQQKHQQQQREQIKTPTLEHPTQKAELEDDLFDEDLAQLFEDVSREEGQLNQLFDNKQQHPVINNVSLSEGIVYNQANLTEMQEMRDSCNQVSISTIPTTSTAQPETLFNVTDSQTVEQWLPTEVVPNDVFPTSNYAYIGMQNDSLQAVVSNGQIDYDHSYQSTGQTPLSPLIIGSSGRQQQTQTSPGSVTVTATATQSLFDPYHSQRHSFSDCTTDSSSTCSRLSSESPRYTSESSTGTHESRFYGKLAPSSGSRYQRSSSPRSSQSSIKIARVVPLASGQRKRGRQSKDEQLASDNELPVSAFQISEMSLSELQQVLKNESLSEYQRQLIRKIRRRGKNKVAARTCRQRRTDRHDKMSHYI

[16] = molecular target: T4, Rac GTPase-activating protein 1 (Homo sapiens, UniProt Q9H0H5); experiment: MgcRacGAP GTPase-activating activity inhibitors, confirmation, biochemical, ADP Hunter fluorescence, primary and confirmatory (AID 624330); format: functional
T4 sequence (Q9H0H5 whole entry): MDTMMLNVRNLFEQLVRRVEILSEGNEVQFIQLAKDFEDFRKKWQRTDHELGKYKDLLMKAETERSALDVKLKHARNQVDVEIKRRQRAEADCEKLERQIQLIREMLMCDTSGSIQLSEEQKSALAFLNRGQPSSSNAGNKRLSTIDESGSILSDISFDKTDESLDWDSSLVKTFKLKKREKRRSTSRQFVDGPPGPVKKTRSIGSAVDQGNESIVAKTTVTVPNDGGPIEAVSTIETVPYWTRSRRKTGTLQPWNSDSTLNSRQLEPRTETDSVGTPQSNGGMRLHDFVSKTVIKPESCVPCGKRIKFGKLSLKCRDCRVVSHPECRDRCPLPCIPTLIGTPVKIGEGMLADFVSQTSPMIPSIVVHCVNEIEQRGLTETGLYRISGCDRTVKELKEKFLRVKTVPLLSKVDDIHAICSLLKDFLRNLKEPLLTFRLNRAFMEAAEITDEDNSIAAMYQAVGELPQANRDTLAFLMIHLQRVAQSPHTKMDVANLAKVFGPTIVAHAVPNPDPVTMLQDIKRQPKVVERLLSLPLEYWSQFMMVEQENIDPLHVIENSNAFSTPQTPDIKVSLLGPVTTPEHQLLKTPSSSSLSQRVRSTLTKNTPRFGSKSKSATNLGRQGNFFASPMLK

[17] = molecular target: T5, Tyrosine-protein phosphatase non-receptor type 7 (Homo sapiens, UniProt P35236); experiment: redox-dependent HePTP inhibition, mechanism study, biochemical, fluorescence (AID 2068); format: functional
T5 sequence (P35236 whole entry): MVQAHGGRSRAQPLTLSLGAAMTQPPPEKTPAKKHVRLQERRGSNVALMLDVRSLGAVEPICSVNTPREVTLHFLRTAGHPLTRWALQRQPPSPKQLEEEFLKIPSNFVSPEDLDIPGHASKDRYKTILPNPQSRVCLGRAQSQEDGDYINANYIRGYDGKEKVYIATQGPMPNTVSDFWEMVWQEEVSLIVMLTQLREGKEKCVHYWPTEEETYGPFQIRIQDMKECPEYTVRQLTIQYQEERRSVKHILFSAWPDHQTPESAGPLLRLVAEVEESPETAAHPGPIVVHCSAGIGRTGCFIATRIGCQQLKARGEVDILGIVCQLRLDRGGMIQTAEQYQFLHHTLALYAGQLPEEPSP

[18] = A Cell Based Secondary Assay To Explore Cytotoxicity of Compounds that Sensitize Mycobacterium Tuberculosis to Beta-Lactam Antibiotics.; format: functional
[19] = system: Streptococcus; experiment: Group A Streptococcus viability loss, dose response, counter-screen for streptokinase expression inhibitor project, luminescence, BacTiterGlo (AID 1915); format: functional, organism-based;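 also: potency for reduction of bacterial viability or growth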
[20] = system: Streptococcus sp. 'group A'; experiment: growth inhibition of control SK(-) GAS strain, dose response, counter-screen for streptokinase expression inhibitor project, luminescence, kanamycin, BacTiterGlo, confirmation (AID 1900); format: functional, organism-based
[21] = molecular target: T6, Streptokinase A (Streptococcus pyogenes serotype M1, UniProt P10520); experiment: S. pyogenes streptokinase expression inhibitors, potency, dose response, plasminogen activation absorbance, OD405 (AID 1914); format: functional, Streptococcus pyogenes M1 GAS;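 also: secreted streptokinase activity via plasminogen activation per viability signal from cell pellet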
T6 sequence (P10520 whole entry): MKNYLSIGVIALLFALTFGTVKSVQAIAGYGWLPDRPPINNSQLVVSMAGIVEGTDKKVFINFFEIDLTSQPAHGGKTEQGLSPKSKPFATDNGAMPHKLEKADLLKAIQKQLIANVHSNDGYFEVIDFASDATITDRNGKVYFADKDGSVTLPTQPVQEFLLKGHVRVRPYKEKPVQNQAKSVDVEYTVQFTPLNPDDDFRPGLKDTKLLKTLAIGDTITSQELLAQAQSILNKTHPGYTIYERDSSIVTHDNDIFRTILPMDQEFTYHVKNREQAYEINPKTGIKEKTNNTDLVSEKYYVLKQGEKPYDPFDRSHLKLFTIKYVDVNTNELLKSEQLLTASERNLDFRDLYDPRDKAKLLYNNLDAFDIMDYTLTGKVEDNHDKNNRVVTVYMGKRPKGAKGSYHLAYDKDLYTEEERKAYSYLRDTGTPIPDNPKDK

[22] = molecular target: T7, Calpain-2 catalytic subunit (Sus scrofa, UniProt P43367); experiment: pig calpain II inhibitor potency, dose response, biochemical, fluorogenic peptide substrate (AID 1420); format: functional
T7 sequence (P43367 whole entry): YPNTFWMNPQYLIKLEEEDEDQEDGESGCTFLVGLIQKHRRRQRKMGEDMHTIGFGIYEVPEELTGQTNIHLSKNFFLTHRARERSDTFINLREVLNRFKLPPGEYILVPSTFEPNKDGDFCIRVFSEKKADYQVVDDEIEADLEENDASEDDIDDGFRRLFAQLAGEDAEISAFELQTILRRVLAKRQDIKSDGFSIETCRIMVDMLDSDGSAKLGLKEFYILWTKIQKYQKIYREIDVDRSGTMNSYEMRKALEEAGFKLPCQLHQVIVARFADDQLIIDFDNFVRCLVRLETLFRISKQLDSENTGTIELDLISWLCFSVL

[23] = growth suppression of PTEN-null colon cells, dose response, cell-based, HCT116 PTEN knockout (AID 1047); format: functional;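 also: HCT116 colon tumor cells with PTEN knocked out; cells exposed to compound for 60 hours before readout; potency for loss of cell viability measured by luminescence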
[24] = growth suppression of beta-catenin-knockout colon cells, dose response, cell-based, HCT116, human colon tumor (AID 1045); format: functional;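 also: HCT116 colon tumor cells with beta catenin knocked out; cells exposed to compound for 60 hours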

DNA dC->dU-editing enzyme APOBEC-3G, sequence (Q9HC16 whole entry): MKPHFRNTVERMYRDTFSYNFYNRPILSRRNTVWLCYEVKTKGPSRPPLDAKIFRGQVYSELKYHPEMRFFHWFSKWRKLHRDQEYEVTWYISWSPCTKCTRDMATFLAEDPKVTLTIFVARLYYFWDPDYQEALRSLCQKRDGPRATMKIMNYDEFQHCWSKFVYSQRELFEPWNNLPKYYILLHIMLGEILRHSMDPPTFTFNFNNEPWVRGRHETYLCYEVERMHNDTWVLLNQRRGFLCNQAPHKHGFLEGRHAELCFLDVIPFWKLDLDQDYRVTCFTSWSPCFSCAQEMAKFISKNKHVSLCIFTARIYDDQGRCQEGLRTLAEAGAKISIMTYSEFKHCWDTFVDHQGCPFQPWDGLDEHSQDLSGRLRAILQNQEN
DNA dC->dU-editing enzyme APOBEC-3A, sequence (P31941 whole entry): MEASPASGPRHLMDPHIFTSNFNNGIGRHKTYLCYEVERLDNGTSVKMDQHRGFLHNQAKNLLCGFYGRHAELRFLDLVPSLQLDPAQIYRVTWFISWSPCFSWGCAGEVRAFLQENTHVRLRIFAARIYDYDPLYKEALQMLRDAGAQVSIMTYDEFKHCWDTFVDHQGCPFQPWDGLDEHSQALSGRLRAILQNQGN
Nonstructural protein 1, sequence (Q194T2 whole entry): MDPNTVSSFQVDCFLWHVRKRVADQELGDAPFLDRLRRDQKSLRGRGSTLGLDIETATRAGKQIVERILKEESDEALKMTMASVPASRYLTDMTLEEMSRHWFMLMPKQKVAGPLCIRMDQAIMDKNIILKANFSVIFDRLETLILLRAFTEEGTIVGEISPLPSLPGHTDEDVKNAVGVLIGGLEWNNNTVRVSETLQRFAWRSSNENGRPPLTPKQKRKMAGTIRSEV
Large T antigen, sequence (P03070 whole entry): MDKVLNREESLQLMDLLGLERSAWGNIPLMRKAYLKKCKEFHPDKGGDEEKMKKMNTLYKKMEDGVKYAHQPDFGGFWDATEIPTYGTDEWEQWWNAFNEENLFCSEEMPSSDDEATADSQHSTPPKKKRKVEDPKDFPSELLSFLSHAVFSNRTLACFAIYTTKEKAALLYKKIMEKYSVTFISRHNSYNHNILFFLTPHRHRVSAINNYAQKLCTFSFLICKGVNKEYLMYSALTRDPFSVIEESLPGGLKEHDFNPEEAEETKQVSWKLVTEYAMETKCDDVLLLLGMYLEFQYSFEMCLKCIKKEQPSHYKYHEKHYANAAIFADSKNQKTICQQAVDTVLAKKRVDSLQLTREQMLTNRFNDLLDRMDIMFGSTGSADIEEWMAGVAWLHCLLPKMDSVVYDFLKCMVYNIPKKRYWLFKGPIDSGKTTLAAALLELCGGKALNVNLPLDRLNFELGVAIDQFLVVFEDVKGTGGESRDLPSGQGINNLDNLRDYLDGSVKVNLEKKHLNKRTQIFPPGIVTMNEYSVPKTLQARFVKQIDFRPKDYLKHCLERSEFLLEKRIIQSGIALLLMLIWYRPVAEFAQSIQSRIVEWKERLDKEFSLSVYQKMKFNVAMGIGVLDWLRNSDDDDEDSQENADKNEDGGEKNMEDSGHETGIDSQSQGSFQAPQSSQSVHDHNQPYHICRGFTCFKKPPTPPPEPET
Beta-galactosidase, sequence (Q8VNN2 whole entry): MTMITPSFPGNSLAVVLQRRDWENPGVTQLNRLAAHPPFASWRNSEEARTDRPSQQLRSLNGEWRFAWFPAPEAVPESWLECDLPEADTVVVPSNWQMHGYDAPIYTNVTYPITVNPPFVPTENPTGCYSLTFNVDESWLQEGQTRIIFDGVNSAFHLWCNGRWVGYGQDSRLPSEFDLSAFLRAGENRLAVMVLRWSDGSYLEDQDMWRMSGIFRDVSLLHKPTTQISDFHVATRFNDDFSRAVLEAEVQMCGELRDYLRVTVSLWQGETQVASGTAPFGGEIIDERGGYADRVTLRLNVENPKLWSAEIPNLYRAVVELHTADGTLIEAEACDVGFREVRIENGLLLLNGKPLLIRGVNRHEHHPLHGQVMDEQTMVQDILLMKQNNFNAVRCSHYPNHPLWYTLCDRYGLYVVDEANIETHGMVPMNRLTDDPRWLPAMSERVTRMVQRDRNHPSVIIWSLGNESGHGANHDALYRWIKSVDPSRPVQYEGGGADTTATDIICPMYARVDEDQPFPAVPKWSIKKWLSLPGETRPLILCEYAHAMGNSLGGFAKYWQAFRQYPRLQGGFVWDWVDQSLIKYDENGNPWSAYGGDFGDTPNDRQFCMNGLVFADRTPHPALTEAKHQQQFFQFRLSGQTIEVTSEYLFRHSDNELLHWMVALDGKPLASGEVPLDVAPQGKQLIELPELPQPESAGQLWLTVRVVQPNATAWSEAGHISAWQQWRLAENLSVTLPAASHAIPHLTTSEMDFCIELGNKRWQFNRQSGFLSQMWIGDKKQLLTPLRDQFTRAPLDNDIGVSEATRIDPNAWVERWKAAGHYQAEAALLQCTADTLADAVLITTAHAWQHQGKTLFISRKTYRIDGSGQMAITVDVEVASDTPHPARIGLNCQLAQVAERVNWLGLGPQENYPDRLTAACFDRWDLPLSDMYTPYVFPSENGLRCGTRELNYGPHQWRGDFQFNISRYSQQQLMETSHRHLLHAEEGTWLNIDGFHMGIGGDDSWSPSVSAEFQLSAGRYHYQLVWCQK

Cc1cc(C)c(C)c(S(=O)(=O)N2CCC(C(=O)OCC(=O)N3c4ccccc4NC(=O)C3(C)C)CC2)c1C
IC50 [1]: 45.3 µM (active)

C[N+]1(CC(COCc2ccccc2)OC(=O)Cc2ccccc2)CCOCC1 (stereo unspecified)
IC50 [2]: 2.42 µM (active) | IC50 [3]: 2.41 µM (active)

CC1(C#CC[N+]2(C)CCCCC2)CCC2C(O1)c1ccccc1OC2(C)C (stereo unspecified)
IC50 [2]: 5.07 µM (active) | IC50 [3]: 3.03 µM (active)

Cc1nc2ncccn2c1-c1csc(Nc2ccc(N(C)C)cc2)n1
IC50 [4]: 8.9 µM (active) | EC50 [5]: > 120 µM (not active) | EC50 [6]: 0.108 µM (active) | IC50 [7]: 6.91 µM (active) | EC50 [8]: 0.163 µM (active) | EC50 [9]: 0.128 µM (active) | EC50 [10]: < 0.1 µM (inconclusive)

CCOc1ccccc1NC(=O)Cn1nnc(C(=O)NCc2cccs2)c1N
IC50 [11]: > 80 µM (inactive) | EC50 [5]: 0.146 µM (active) | EC50 [12]: < 0.1 µM (active) | EC50 [6]: 0.877 µM (active) | EC50 [8]: 0.696 µM (active) | EC50 [9]: 0.685 µM (active) | EC50 [10]: < 0.1 µM (active)

O=C1CC(Sc2nnnn2C2CCCCC2)C(=O)N1c1ccccc1 (stereo unspecified)
IC50 [13]: > 66.6 µM (inactive)

COc1ccc(Br)cc1/C=N/NC(=O)CNC(=O)c1cccnc1
IC50 [14]: 27.2 µM (active)

Nc1ccc(N2CCN(C(=O)c3cccs3)CC2)cc1
IC50 [1]: > 100 µM (inactive) | IC50 [15]: > 100 µM (inactive) | IC50 [16]: 19 µM (active)

COc1cccc(NC(=O)Nc2ccc3nc(-c4ccco4)c(-c4ccco4)nc3c2)c1
IC50 [17]: 1.09 µM (active)

Cc1cccc(NC(=O)c2nc[nH]c2C(=O)N[C@@H](CC(C)C)C(=O)OCc2ccccc2)c1
CC50 [18]: 22.4 µM (active) | EC50 [19]: 3.95 µM (active) | EC50 [20]: 2.12 µM (active) | EC50 [21]: > 150 µM (not active)

CCCCNC(=O)CSc1nc2ccc(NC(=O)CSc3nnc(N)s3)cc2s1
IC50 [2]: 6.28 µM (active) | IC50 [3]: 3.61 µM (active)

Cc1cc(=O)oc2c(CN(CC(C)C)CC(C)C)c(O)ccc12
IC50 [14]: 74 µM (active)

O=C(Nc1ccc(OC(=O)c2ccccc2)c(-c2nc3ccccc3s2)c1)c1ccccc1
IC50 [22]: 18.5 µM (not active) | EC50 [23]: 18.2 µM (active) | CC50 [18]: > 40 µM (active) | EC50 [24]: 24.2 µM (active)

From ChEMBL document CHEMBL1201862, “PubChem BioAssay data set” (2004)
